The text below walks through data of patent publication US6043072A, “Nucleic acids encoding Taxus geranylgeranyl diphosphate synthase, and methods of use” (Washington State University Research Foundation, priority 1998, dated 2000).

What is called Km is the substrate concentration at which the rate is half of its maximum.

Experiment [1] concerns the target T. canadensis GGPP synthase (Taxus canadensis, UniProt Q9ZPM3). Nature of the experiment: Kinetic evaluation of recombinant GGPP synthase (standard prenyltransferase assay, double reciprocal plots). It counts as biochemical. To be noted: for relative velocities of the reaction with allylic co-substrates: co-substrate at 12.5 and 25 mM, IPP and Mg^2+ at saturation. As for the experimental part:
The reaction was quenched by the addition of 300 mil of methanol:conc. HCl (4:1, v/v), and the allylic diphosphate products were solvolyzed (50, 51) upon further incubation at 42° C. for 20 min. The resulting solvolysis products were extracted twice with 1 ml pentane, and were either analyzed by liquid scintillation counting (in toluene:ethanol (7:3, v/v) containing 0.4% Omnifluor (DuPont NEN); ^14 C counting efficiency=96.0%) or concentrated on ice under a gentle stream of Ar to […] for further analysis.

For the next experiment, the target named is T1, GGPP synthase proteins (Taxus canadensis, UniProt Q9ZPM3).
T1 construct: values reportedly equal those of recombinant truncated (mature) T. canadensis enzyme
T1 sequence (Q9ZPM3 99-393): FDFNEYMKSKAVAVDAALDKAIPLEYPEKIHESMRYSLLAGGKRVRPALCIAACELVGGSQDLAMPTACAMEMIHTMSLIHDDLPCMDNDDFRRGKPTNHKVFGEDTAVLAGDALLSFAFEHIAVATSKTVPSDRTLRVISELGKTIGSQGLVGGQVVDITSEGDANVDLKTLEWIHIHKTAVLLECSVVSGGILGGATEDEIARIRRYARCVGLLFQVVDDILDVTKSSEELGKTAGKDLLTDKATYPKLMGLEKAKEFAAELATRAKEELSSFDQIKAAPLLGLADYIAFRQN
Nature of the experiment: Physical properties of GGPP synthase proteins isolated from various Taxus species (Table 1). Format: biochemical, T. canadensis; T. brevifolia; T. cuspidata and T. baccata.

The subject of the next experiment is taxadiene synthase. Briefly: Enzyme activity in cell culture extracts after methyl jasmonate induction. Format: cell-based, T. canadensis. The note with it: crude extracts, 0-168 h after induction (FIG. 5). As for the experimental part:
(§1) The same T. canadensis cell cultures used for RNA blot analysis were also used to determine the relative activities of GGPP synthase and taxadiene synthase over the course of methyl jasmonate induction of paclitaxel biosynthesis. […] Particulate material and cellular debris were removed from the homogenates by centrifugation, first at 3000 g, then at 31,000 g, for 20 min at 4° C. Protein concentration in the supernatant used as the enzyme source was estimated by the method of Bradford (Bradford, M. M. (1976) Anal. Biochem. 72:24814 254). GGPP synthase activity was determined by the standard prenyltransferase assay described in Example 4, except that 100 μl of crude extract (150 μg protein) isolated from T. canadensis cell cultures was used as the enzyme source and the reactions were incubated for 10 min. Taxadiene synthase activity was determined by measuring the Mg^2+ -dependent conversion of [1-^3 H1 ]geranylgeranyl diphosphate (15 μM) to the olefin product as described in Hezari, M., Lewis, N. G. and Croteau, R. (1995) Arch. Biochem. Biophys., 322:437-444; […]., Gibson, D. M. and Croteau, R. (1997) Arch. Biochem. Biophys., 337:185-190. In this assay, 500 μl of the crude extract (750 μg protein) was incubated at 3 1° C. for 1 h.

The next experiment has as its system GGPP synthase. The description is as above. It counts as cell-based, T. canadensis. The note with it: crude extracts, 0-168 h after induction (FIG. 5). As for the experimental part:
as §1

A further experiment deals with GGPP synthase mRNA. Briefly: RNA-blot analysis over the time course of methyl jasmonate induction. Format: cell-based, T. canadensis. The note with it: at 8 h; elevated through at least 48 h. As for the experimental part:
(§2) Total RNA was isolated from T. canadensis suspension cell cultures using the method set forth in Example 1. Equivalent amounts of RNA […] from cells that had been harvested 8, 12, 24, 48, and 168 h after methyl jasmonate induction, as well as RNA isolated from non-induced cells (0 h), were separated by electrophoresis on a formaldehyde-denaturing agarose gel, along with RNA size standards (Promega Corporation, Madison, Wis.). The separated RNA was blotted to nylon membrane by capillary action and then fixed by UV irradiation. Radiolabeled probes corresponding to the full length GGPP synthase coding region (nucleotide 308 to nucleotide 1489 of the nucleic acid sequence set forth in SEQ ID NO:1), and to an internal fragment (nucleotides 173 to 1875 inclusive) of the taxadiene synthase cDNA reported in Wildung, M. R. and Croteau, R. (1996) J. Biol. […] The blot was incubated sequentially with each probe for 16 h at 65° C., then washed twice with 2×SSC at room temperature, and then thrice with 0.5×SSC at 65° C. The blot was imaged using a Bio-Rad GS-525 Molecular Imager® System and Molecular Analyst version 2.1 software.

The next experiment relates to taxadiene synthase mRNA. Described as above. Format: cell-based, T. canadensis. To be noted: at 8 h; elevated through at least 48 h. As for the experimental part:
as §2

For experiment [2], the system named is T. canadensis suspension cell cultures. Briefly: Methyl jasmonate induction of suspension cell cultures: paclitaxel in medium and cell mass. It counts as cell-based. As for the experimental part:
Suspension cell cultures were treated with methyl jasmonate 7 d after subculture and harvested at 8, 12, 24, 48 or 168 h after elicitation, or immediately before induction. During this 7 d induction period, the wet cell mass increased by about 10% and the paclitaxel concentration in the medium (where the majority of the taxoids accumulate) rose from 2.5 mg/l to 32 mg/I, with the greatest increase occurring after 48 h. The concentration of paclitaxel was measured by calibrated HPLC with UV detection as described in Hezari et al, Arch. Biochem. Biophys., 337:185-190 (1997).

T. canadensis GGPP synthase, sequence (Q9ZPM3 99-393): as above

With `CC(C)=CCC/C(C)=C/CC/C(C)=C/CO[P@@](=O)(O)OP(=O)(O)O` (stereo in doubt) [FPP, farnesyl diphosphate], in experiment [1], the “relative velocities of the reaction with allylic co-substrates” value turned out to be 66%.
Still for that read-out and setting: as for `CC(C)=CCC/C(C)=C/COP(=O)(O)OP(=O)(O)O` [GPP, geranyl diphosphate], the figure is 100%.
On to `[Mg+2]` [Mg^2+], for which the Km in experiment [1] (double reciprocal plotting, remaining reactants at saturation) was determined as 35 µM; at GGPP synthase proteins, 35 ± 3 µM.
In the case of `[Mn+2]` [Mn^2+], the “support of catalysis as divalent metal ion cofactor” value in experiment [1] is on record as “did not support catalysis”.
With `CC/C=C\CC1C(=O)CCC1CC(=O)OC` (centres unmarked) [methyl jasmonate], the “taxadiene synthase activity level” value with taxadiene synthase is on record as “rose steadily to 48 h”. Besides, in the experiment with GGPP synthase, the “GGPP synthase activity level” value was “rose steadily to 48 h”. Moreover, the “steady state mRNA level of GGPP synthase” value with GGPP synthase mRNA is “rapid increase”. The “steady state mRNA level of taxadiene synthase” value in the experiment with taxadiene synthase mRNA was “rapid increase”. Also, the “paclitaxel concentration in the medium” value in experiment [2] (after 7 d induction period, rose from 2.5 mg/l) is recorded as 32 mg/I. The “increase of wet cell mass” value in experiment [2] (during 7 d induction period) is “about 10%”.
